Laboratory results taken from patent US20130109682A1, “CYCLIC ETHER COMPOUNDS USEFUL AS KINASE INHIBITORS” (NOVARTIS AG, priority 2010, published 2013).

What was measured:
[1] = test system: KMS11 (human myeloma cell line); test: Cell proliferation assay (CellTiter-Glo), KMS11; type: cell-based; details: KMS11-Luc cells
Procedure, shortened: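 KMS11 cells in IMDM with 10% FBS and sodium pyruvate, seeded at 2000 cells/well on assay day. Compound added at 2× to equal volume of cells, incubated 3 days at 37° C. Viability read by CellTiter-Glo luminescence; EC50 derived.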

PIM1 = PIM1 (Homo sapiens, UniProt P11309); test: KinaseGlo Pim1 ATP depletion assay; type: biochemical
Procedure, shortened: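 2.5 nM PIM1 preincubated 15 min with compound and 40 μM BAD peptide in 50 mM HEPES pH 7.5, 5 mM MgCl2, 1 mM DTT, 0.05% BSA, 2.5% DMSO. The reaction was started with 20 μM ATP (final) and run to about 50% ATP depletion. Remaining ATP read by KinaseGlo Plus luminescence to give IC50.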

PIM3 = PIM3 (Homo sapiens, UniProt Q86V86); test: KinaseGlo Pim3 ATP depletion assay; type: biochemical
Procedure, shortened: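 Kinase was preincubated 15 min with BAD peptide in HEPES pH 7.5/MgCl2/DTT/BSA before ATP was added. Final concentrations were 40 μM ATP, 100 μM BAD peptide and 2.5% DMSO, with 5 nM enzyme. The reaction ran to ~50% ATP depletion and remaining ATP was read by KinaseGlo Plus luminescence.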

PIM2 = PIM2 (Homo sapiens, UniProt Q9P1W9); test: KinaseGlo Pim2 ATP depletion assay; type: biochemical
Procedure, shortened: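 Luminescent ATP-depletion read-out of PIM2 phosphorylating BAD peptide (RSRHSSYPAGT-OH). Final conditions: 5 nM PIM2, 4 μM ATP, 10 μM peptide, 2.5% DMSO in 50 mM HEPES pH 7.5, 5 mM MgCl2, 1 mM DTT, 0.05% BSA. Enzyme–peptide preincubated 15 min with compound; reaction run to ~50% ATP depletion.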

hERG = biological target: T1, hERG (Homo sapiens, UniProt Q12809); test: hERG binding assay ([3H] dofetilide displacement); details: dofetilide displacement; read-out: HERGdof IC50
T1 construct: host or cells: crude membrane suspension
Protocol: Compounds of the invention were pipetted into each well of pre-wet 96-well Millipore GF/C filter plates (#MSFCN6B50): 119 μl assay buffer, 1 μl test compound in 100% DMSO (or 100% DMSO only for total binding), 40 μl [3H] dofetilide (12.5 nM, final concentration 2.5 nM; Novartis radioisotope laboratory, East Hanover, N.J., USA, specific activity 15-45 Ci/mmol); 40 μl crude membrane suspension (ca. 15 μg protein). The final concentration of DMSO during the incubation was 0.5%. Incubations were performed at room temperature for 90 min. Non-specific binding (NSB) was defined as the binding remaining in the presence of 25 μM terfenadine (Sigma T9652). The incubations were terminated by rapid filtration on a Millipore filtration manifold, followed by three washes of 200 μA ice-cold assay buffer. The plates were left to dry overnight before adding 40 μA scintillant (MicroScint-20). The plates were then sealed (Sealing Tape SI, Nunc 236366) and read in a Wallac MicroBeta Trilux beta-counter for 1.5 min per well. Compounds were tested as 9-concentration response curves in duplicate, ranging from 30 μM to 3 nM in 1:3 dilution steps. Dilution curves were prepared in 100% DMSO. The reference compound (terfenadine) was tested as an eight-concentration response curve, ranging from 10 μM to 0.6 nM in 1:4 dilution steps.

GSK3β = GSK3β (Homo sapiens, UniProt P49841); test: GSK3β ATP depletion assay; type: biochemical; details: read-out: GSK3b IC50
Procedure, shortened: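 Human GSK3β (5 nM) preincubated 15 min with 10 μM biotinylated phospho-CREB peptide in pH 7.5 Tris buffer (15 mM MgCl2, 1 mM DTT, 0.1% BSA, 2.5% DMSO). Reaction started with 2 μM ATP and run to about 50% ATP depletion. Remaining ATP measured by KinaseGlo luminescence.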

GSK3β, sequence (P49841 whole entry, species assumed): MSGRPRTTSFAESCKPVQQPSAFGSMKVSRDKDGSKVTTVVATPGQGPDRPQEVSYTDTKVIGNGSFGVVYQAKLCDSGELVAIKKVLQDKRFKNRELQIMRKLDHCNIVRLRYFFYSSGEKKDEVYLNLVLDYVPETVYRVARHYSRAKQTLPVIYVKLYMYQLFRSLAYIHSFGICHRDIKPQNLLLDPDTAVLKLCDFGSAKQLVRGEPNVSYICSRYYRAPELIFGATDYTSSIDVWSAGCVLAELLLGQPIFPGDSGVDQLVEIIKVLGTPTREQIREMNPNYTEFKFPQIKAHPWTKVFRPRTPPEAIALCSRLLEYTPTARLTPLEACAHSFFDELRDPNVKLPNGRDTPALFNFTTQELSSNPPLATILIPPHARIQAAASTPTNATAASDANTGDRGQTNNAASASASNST
PIM1, sequence (P11309 whole entry): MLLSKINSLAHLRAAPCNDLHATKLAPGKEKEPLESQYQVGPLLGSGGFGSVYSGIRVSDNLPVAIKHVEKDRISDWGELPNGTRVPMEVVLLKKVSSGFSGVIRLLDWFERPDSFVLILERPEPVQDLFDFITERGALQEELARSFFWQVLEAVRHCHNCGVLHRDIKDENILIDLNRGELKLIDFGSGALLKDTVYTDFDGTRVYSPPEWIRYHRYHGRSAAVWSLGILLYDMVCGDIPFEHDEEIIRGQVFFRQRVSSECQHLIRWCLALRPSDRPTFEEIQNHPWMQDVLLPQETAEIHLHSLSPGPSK
T1 sequence (Q12809 whole entry): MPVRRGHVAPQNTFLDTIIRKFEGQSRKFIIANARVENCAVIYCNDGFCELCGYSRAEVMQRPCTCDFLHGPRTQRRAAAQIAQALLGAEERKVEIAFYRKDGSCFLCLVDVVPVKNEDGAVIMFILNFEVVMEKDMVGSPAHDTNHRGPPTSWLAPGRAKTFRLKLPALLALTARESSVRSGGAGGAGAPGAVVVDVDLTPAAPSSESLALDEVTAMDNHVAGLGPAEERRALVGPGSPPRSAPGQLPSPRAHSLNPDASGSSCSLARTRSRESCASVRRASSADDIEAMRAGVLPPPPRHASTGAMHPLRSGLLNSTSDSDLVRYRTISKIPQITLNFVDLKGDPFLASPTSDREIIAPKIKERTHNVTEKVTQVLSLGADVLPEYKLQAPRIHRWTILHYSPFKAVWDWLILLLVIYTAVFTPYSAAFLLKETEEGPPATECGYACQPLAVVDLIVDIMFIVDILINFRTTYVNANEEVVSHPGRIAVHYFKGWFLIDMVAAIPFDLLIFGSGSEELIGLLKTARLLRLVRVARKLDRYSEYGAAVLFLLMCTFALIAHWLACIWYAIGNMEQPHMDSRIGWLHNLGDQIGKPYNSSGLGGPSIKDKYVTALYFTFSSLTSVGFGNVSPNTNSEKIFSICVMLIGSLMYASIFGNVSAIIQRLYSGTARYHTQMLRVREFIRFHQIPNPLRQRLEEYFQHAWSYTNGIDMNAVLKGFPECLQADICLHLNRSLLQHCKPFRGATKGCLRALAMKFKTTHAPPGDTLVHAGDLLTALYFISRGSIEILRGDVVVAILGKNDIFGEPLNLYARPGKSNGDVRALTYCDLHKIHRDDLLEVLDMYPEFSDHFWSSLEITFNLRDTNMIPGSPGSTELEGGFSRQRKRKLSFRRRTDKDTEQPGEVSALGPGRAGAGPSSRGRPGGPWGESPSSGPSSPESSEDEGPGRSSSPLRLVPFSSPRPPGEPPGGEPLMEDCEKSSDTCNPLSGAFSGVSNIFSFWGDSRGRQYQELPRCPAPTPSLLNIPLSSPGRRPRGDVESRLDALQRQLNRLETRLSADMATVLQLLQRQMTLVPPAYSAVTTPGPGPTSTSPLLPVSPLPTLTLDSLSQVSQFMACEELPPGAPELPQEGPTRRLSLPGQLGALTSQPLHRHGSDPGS
PIM2, sequence (Q9P1W9 whole entry): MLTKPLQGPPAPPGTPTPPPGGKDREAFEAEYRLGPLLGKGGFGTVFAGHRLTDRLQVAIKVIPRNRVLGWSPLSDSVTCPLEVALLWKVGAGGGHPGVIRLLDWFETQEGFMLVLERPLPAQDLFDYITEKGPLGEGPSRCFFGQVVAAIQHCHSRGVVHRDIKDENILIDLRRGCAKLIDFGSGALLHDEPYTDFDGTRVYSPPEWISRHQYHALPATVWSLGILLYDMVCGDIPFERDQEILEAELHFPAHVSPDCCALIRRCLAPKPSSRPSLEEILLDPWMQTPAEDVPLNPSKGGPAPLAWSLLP

| SMILES | EC50 [1] [nM] | IC50 (PIM1) [nM] | IC50 (PIM3) [nM] | IC50 (PIM2) [nM] | IC50 (hERG) [nM] | IC50 (GSK3β) [nM] | EC50 ([1]; Homo sapiens, KMS-11) [nM] |
| --- | --- | --- | --- | --- | --- | --- | --- |
| CC[C@]1(O)[C@H](O)C[C@H](c2ccncc2NC(=O)c2nc(-c3c(F)cccc3F)ncc2N)O[C@@H]1C [Example 16, 5-amino-2-(2,6-difluorophenyl)-N-(4-((2R,4R,5S,6R)-5-ethyl-4,5-dihydroxy-6-methyltetrahydro-2H-pyran-2-yl)pyridin-3-yl)pyrimidine-4-carboxamide] | 1940 | 1 | 2 | 3 | > 30000 | 101 |  |
| C[C@H]1C[C@@H](N)C[C@@H](c2ccncc2NC(=O)c2ccc(F)c(-c3c(F)cccc3F)n2)O1 [Example 124, N-(4-((2S,4R,6S)-4-amino-6-methyltetrahydro-2H-pyran-2-yl)pyridin-3-yl)-6-(2,6-difluorophenyl)-5-fluoropicolinamide] |  | 1 | 2 | 5 | 3000 | 3400 | 1600 |
| C[C@H]1O[C@@H](c2ccncc2NC(=O)c2cncc(-c3ccccc3)n2)C[C@@H](O)[C@]1(C)O [Example 85, N-(4-((2R,4R,5S,6R)-4,5-dihydroxy-5,6-dimethyltetrahydro-2H-pyran-2-yl)pyridin-3-yl)-6-phenylpyrazine-2-carboxamide] |  | 221 | 564 | 20600 | > 30000 | 257 | > 10000 |
| C[C@H]1C[C@@H](N)C[C@@H](c2ccncc2NC(=O)c2csc(-c3c(F)cccc3F)n2)O1 [Example 123, N-(4-((2S,4R,6S)-4-amino-6-methyltetrahydro-2H-pyran-2-yl)pyridin-3-yl)-2-(2,6-difluorophenyl)thiazole-4-carboxamide] |  | 1 | 7 | 44 | 12000 | 421 | 4200 |
| CC[C@]1(O)[C@H](O)C[C@H](c2ccncc2NC(=O)c2nc(-c3c(F)cccc3F)c(F)cc2N)O[C@@H]1C [Example 27, 3-amino-6-(2,6-difluorophenyl)-N-(4-((2R,4R,5S,6R)-5-ethyl-4,5-dihydroxy-6-methyltetrahydro-2H-pyran-2-yl)pyridin-3-yl)-5-fluoropicolinamide] |  | 1 | 1 | 1 | > 30000 | 250 |  |
| [2H][C@@H]1[C@@H](O)[C@H](O)[C@@H](CC)O[C@@]1([2H])c1ccncc1NC(=O)c1ccc(F)c(-c2c(F)cccc2F)n1 [Example 54, 6-(2,6-difluorophenyl)-N-(4-((2R,4R,5S,6R)-6-ethyl-4,5-dihydroxy-2,3-didueterotetrahydro-2H-pyran-2-yl)pyridin-3-yl)-5-fluoropicolinamide] |  | 1 | 2 | 3 | > 30000 | 131 | 2100 |
| C[C@@H]1O[C@H](c2ccncc2NC(=O)c2cncc(-c3ccccc3)n2)C[C@H](O)[C@@]1(C)O [Example 87, N-(4-((2S,4S,5R,6S)-4,5-dihydroxy-5,6-dimethyltetrahydro-2H-pyran-2-yl)pyridin-3-yl)-6-phenylpyrazine-2-carboxamide] |  | 937 | 2670 | > 25000 | > 30000 | 809 | > 10000 |
| C[C@@H]1C[C@H](N)C[C@H](c2ccncc2NC(=O)c2csc(-c3c(F)cccc3F)n2)O1 [Example 121, N-(4-((2R,4S,6R)-4-amino-6-methyltetrahydro-2H-pyran-2-yl)pyridin-3-yl)-2-(2,6-difluorophenyl)thiazole-4-carboxamide] |  | 9 | 44 | 795 | 10000 | 3230 | 4700 |
| C[C@H]1C[C@@H](O)C[C@@H](c2ccncc2NC(=O)c2ccc(F)c(-c3c(F)cccc3F)n2)O1 (stereo in doubt) [Example 128, 6-(2,6-difluorophenyl)-5-fluoro-N-(4-((2S,4R,6S)-4-hydroxy-6-methyltetrahydro-2H-pyran-2-yl)pyridin-3-yl)picolinamide] |  | 1 | 6 | 28 | > 30000 | 276 | 9100 |
| O=C(Nc1cnccc1[C@@H]1C[C@H](O)CC2(CC2)O1)c1ccc(F)c(-c2c(F)cccc2F)n1 [Example 60, 6-(2,6-difluorophenyl)-5-fluoro-N-(4-((5S,7S)-7-hydroxy-4-oxaspiro[2.5]octan-5-yl)pyridin-3-yl)picolinamide] |  |  |  | 28 | > 30000 | 92 | > 10000 |
| C[C@@H]1C[C@H](N)C[C@H](c2ccncc2NC(=O)c2ccc(F)c(-c3c(F)cccc3F)n2)O1 [Example 122, N-(4-((2R,4S,6R)-4-amino-6-methyltetrahydro-2H-pyran-2-yl)pyridin-3-yl)-6-(2,6-difluorophenyl)-5-fluoropicolinamide] |  | 2 | 10 | 45 | 2000 | 12300 | 4700 |
| CC[C@@]1(O)[C@H](O)C[C@H](c2ccncc2NC(=O)c2ccc(F)c(-c3c(F)cccc3F)n2)O[C@@H]1C [Example 74, 6-(2,6-difluorophenyl)-N-(4-((2R,4R,5R,6R)-5-ethyl-4,5-dihydroxy-6-methyltetrahydro-2H-pyran-2-yl)pyridin-3-yl)-5-fluoropicolinamide] |  | 1 | 5 | 11 | > 30000 | 316 | 3600 |
| O=C(Nc1cnccc1[C@H]1C[C@@H](O)[C@H](O)[C@@H](CCl)O1)c1ccc(F)c(-c2c(F)cccc2F)n1 [Example 56, N-(4-((2R,4R,5S,6S)-6-(chloromethyl)-4,5-dihydroxytetrahydro-2H-pyran-2-yl)pyridin-3-yl)-6-(2,6-difluorophenyl)-5-fluoropicolinamide] |  | 1 | 2 | 3 | > 30000 | 73 | 8300 |
| C[C@@H]1O[C@H](c2ccncc2NC(=O)c2ccc(F)c(-c3c(F)cccc3F)n2)C[C@H](N)[C@H]1O [Example 115, N-(4-((2S,4S,5R,6S)-4-amino-5-hydroxy-6-methyltetrahydro-2H-pyran-2-yl)pyridin-3-yl)-6-(2,6-difluorophenyl)-5-fluoropicolinamide] |  | 1 | 2 | 5 | 22000 | 225 | 1300 |
| CC(C)NC(=O)c1ccc(F)c(-c2ccc(N)c(C(=O)Nc3cnccc3[C@H]3C[C@@H](O)[C@](C)(O)[C@@H](C)O3)n2)c1 [Example 104, 3-amino-N-(4-((2R,4R,5S,6R)-4,5-dihydroxy-5,6-dimethyltetrahydro-2H-pyran-2-yl)pyridin-3-yl)-6-(2-fluoro-5-(isopropylcarbamoyl)phenyl)picolinamide] |  | 2 | 2 | 3 | > 30000 | 979 | 2300 |
| CC[C@]1(O)[C@H](C)O[C@H](c2ccncc2NC(=O)c2ccc(F)c(-c3c(F)cccc3F)n2)C[C@@H]1O (stereo in doubt) [Example 76, 6-(2,6-difluorophenyl)-N-(4-((2S,4S,5R,6S)-5-ethyl-4,5-dihydroxy-6-methyltetrahydro-2H-pyran-2-yl)pyridin-3-yl)-5-fluoropicolinamide] |  | 1 | 1 | 2 | > 30000 | 100 | 200 |
